The text below walks through data of article PMC9525273 (Nature Communications, 2022).

Where “and” joins values, the source holds several entries; their conditions need not be identical. Equal entries are not always repeated. Entries after “also recorded” stand apart in the source; their conditions may differ. Where two headings read alike, the source gives them in different places.

One may read the IC50 as the midpoint of a concentration-inhibition curve. In general, IC90 refers to the concentration needed for an effect of 90%.

Assay type in all cases: cell-based, Plasmodium falciparum
Experiment [1] deals with Dd2-Polδ-PfATP4^G358S parasites. Nature of the experiment: P. falciparum proliferation assay (72 h, fluorescent DNA-intercalating dye). Particulars: Dd2-Polδ-PfATP4G358S parasites; individual experiments; read-out: IC50 values. How it is done: (§1) For experiments with all other parasites, the effects of compounds of interest on parasite proliferation was measured in 96-well plates containing serial dilutions of the compounds in culture medium, with a fluorescent DNA-intercalating dye used to detect surviving parasites. The assays were initiated with erythrocytes infected with predominantly ring-stage parasites, and the starting parasitaemia and haematocrit were both 1%.

Experiment [2] deals with HCR2 parasites (highly cipargamin-resistant clone 2). Described as above. Particulars: HCR2 parasites, individual experiments, read-out: IC50 values. As for the experimental part: as §1
For the next experiment, the system named is Dd2 parasites. The experiment is described as above. The note with it: read-out: IC50 values; Dd2 parasites; individual experiments. How it is done:
as §1

The next experiment has as its system Dd2-Polδ parasites. The description is as above. As for the experimental part: as §1
In experiment [3] the test system is Dd2-PfATP4^T418N,P990R parasites. The experiment is described as above. Particulars: Dd2-PfATP4T418N,P990R parasites; individual experiments; read-out: IC50 values. How it is done: as §1
The test system of experiment [4] is HCR1 parasites (highly cipargamin-resistant clone 1). The description is as above. Particulars: Plasmodium falciparum, HCR1 parasites; individual experiments; read-out: IC50 values. As for the experimental part:
as §1

The subject of experiment [5] is parasite lines with a G358S mutation in PfATP4. In words: P. falciparum proliferation assays, statements on all lines with the G358S mutation. Particulars: G358S lines vs PfATP4 wild-type controls. As for the experimental part:
(§2) Two types of parasite proliferation assays were employed in this study, with both yielding highly consistent results. For the NF54-based lines and Dd2-B2-PfATP4^G358S and its parent, assays were initiated with cultures containing predominantly ring-stage parasites with a parasitaemia of 0.3% and a haematocrit of 1%. All assays using NF54 were performed in culture media containing 10% O + human serum. The duration of the assays was 72 h and the concentration of DMSO was <0.5% (v/v). Serial dilutions of the test compounds were performed using a Tecan D300e digital dispenser, with parasite cultures added manually. Parasite survival was assessed by flow cytometry on an Intellicyt iQue3 (Essen Bioscience), with 1× SYBR Green I (Invitrogen) and 200 nM MitoTracker Deep Red FM (Invitrogen) used to stain the nucleus and the mitochondria in live parasites, respectively. The gating strategy used to quantify parasite survival, performed using FlowJo version 10 (FlowJo LLC.), is illustrated in Supplementary Fig. 9. IC50 and IC90 values were calculated by linear interpolation of the dose-response data.
as §1, with “1%. […] Fluorescence was measured using a FLUOstar OPTIMA plate reader (BMG LABTECH), with OPTIMA version 2.20R2 and MARS Data Analysis Software version 3.01 R2 (BMG LABTECH).” for “1%.”

The test system of a further experiment is NF54^WT parasites. Nature of the experiment: microbe, parasite or virus in culture. As for the experimental part: as §2, with “For” for “Two types of parasite proliferation assays were employed in this study, with both yielding highly consistent results. For”
The next experiment concerns NF54^CTL parasites. In words: P. falciparum proliferation assay (72 h, flow cytometry, SYBR Green I/MitoTracker). How it is done: as §2, with “For” for “Two types of parasite proliferation assays were employed in this study, with both yielding highly consistent results. For”
(A flow cytometer gives signals particle by particle.)

For `CCN(CC)CCCC(C)Nc1ccnc2cc(Cl)ccc12` (stereo not drawn) [Chloroquine], the 50% inhibitory concentration (IC50) in experiment [1] was 161 nM and 262 nM and 227 nM; in experiment [2], 229 nM; in experiment [2] (Plasmodium falciparum), 159 nM; with Dd2 parasites it was 92 nM and 187 nM; in the experiment on Dd2-Polδ parasites (Dd2-Polδ parasites, individual experiments, read-out: IC50 values), 172 nM and 316 nM; with Dd2-Polδ parasites (Plasmodium falciparum, DD2, Dd2-Polδ parasites, mean of the experiments, read-out: IC50 values, MEAN), 185 nM. Further, the IC50 came out at 185 nM with Dd2-Polδ parasites (Plasmodium falciparum, DD2, SET-2, read-out: Mean IC50 value ± SEM for growth inhibition, Dd2-Polδ, Supplementary Table 1, Set 2); 165 nM in experiment [3]; 92 nM in experiment [4].
For `CC1(C)c2nc(-c3ccc(F)cc3)c(Nc3ccc(F)cc3)n2CCN1C(=O)CN` [KAF156], the “effect of the G358S mutation in PfATP4 on parasite susceptibility” value in [5] is on record as “no impact; also recorded: no effect”. For the same molecule, the IC50 was 6.9 nM and 7.1 nM and 5.4 nM in the experiment on NF54^WT parasites (NF54WT parasites, individual experiments, read-out: IC50 values); 7.2 nM in the experiment on NF54^WT parasites (Plasmodium falciparum, NF54, NF54WT parasites, individual experiments, read-out: IC50 values); 6.7 nM in the experiment with NF54^WT parasites (Plasmodium falciparum, NF54, NF54WT parasites, mean of the experiments, read-out: IC50 values, MEAN); 6.7 ± 0.2 nM with NF54^WT parasites (Plasmodium falciparum, NF54, NF54WT, 10% human serum, read-out: IC50 ± SEM); 5.1 nM and 4.4 nM and 4.5 nM and 5.9 nM and 4.7 nM in the experiment on NF54^CTL parasites (NF54CTL parasites, individual experiments, read-out: IC50 values); 5.5 nM in the experiment on NF54^CTL parasites (Plasmodium falciparum, NF54, NF54CTL parasites, individual experiments, read-out: IC50 values). Also, in the experiment with NF54^CTL parasites (Plasmodium falciparum, NF54, NF54CTL parasites, mean of the experiments, read-out: IC50 values, MEAN), the half-inhibitory concentration (IC50) was 4.9 nM. Besides, the concentration for an effect of 90% (IC90) in the experiment with NF54^WT parasites (NF54WT parasites, individual experiments, read-out: IC90 values) was 14.7 nM and 12.9 nM and 12.4 nM and 9.88 nM and 13.6 nM and 9.68 nM; in the experiment with NF54^WT parasites (Plasmodium falciparum, NF54, NF54WT parasites, individual experiments, read-out: IC90 values) it was 17.6 nM; in the experiment with NF54^WT parasites (Plasmodium falciparum, NF54, NF54WT parasites, mean of the experiments, read-out: IC90 values, MEAN) it was 13 nM; in the experiment with NF54^CTL parasites (NF54CTL parasites, individual experiments, read-out: IC90 values) it was 13.8 nM and 9.19 nM and 9.36 nM and 8.54 nM and 9.44 nM and 9.66 nM; in the experiment on NF54^CTL parasites (Plasmodium falciparum, NF54, NF54CTL parasites, individual experiments, read-out: IC90 values), 12.6 nM; in the experiment with NF54^CTL parasites (Plasmodium falciparum, NF54, NF54CTL parasites, mean of the experiments, read-out: IC90 values, MEAN), 10.4 nM. Also, the “FC (IC50)” value in the experiment on NF54^WT parasites (NF54WT, reference line) is listed as 1.0 fold; in the experiment with NF54^CTL parasites (NF54CTL compared to NF54WT), 0.7 fold. In addition, the “FC (IC90)” value was 1.0 fold in the experiment with NF54^WT parasites (NF54WT, reference line) and 0.8 fold in the experiment with NF54^CTL parasites (NF54CTL compared to NF54WT).
